Measured values published in US20080234336A1, “Synergistic Imazalil Combinations” (priority 2005, published 2008).

How the values were obtained:
Format in all cases: cell-based
[1] = tested on: Geotrichum candidum (Gca); experiment: Poison plate assay (Experiment 2), fungal growth and Limpel synergy
Protocol: (§1) Name of the primary compound: imazalil (I) Formulations: (% is in w/v)
• Stock solution: 2000 ppm (w/w) • Solvent for dilutions: demineralised water • Fungal species: post harvest and seed pathogens: Geotrichum candidum (Gca) and Penicillium digitatum (Pdi) Calculated amounts of dilutions were poured into multi-well plates. Culture medium was added aseptically and uniform distribution was obtained by shaking. […] The expected activity E of a combination of active ingredients was calculated by using Limpel's formula (Richter, D. L; Pesticide Science 1987, 19: 309-315): • E=A+B−(A*B)/100 wherein A and B express the activities obtained for each of the active ingredients when applied alone. A synergistic effect is acknowledged if the measured activity M exceeds the calculated (expected) activity E (synergy indicated by figures in bold).

Gloeosporium album = experiment: Poison plate assay (Experiment 1), MIC and Synergy Index; conditions: PDA, 27° C., evaluation after two days, ppm total active ingredient; for MIC: Phlyctema vagabunda, 48 h, read-out: MIC-values (minimum inhibitory concentration) in ppm
Text: (§2) Name of the primary compound: • imazalil (I) Name of the combination partners: • boscalid (II-a) • cyproconazole (II-b) • pyraclostrobin (II-c) • triflumizole (II-d) Stock solution: 1000 ppm in DMSO
(§3) • Concentrations of total active ingredient in the combinations: a series of concentrations increasing with steps of 1/3: 0.21-0.28-0.38-0.50-0.67-0.89-1.19-1.58-2.11-2.81-3.75-5.00-6.67-8.90-11.87-15.82-21.09-28.13-37.50-50.00 ppm • Culture medium: Potato Dextrose Agiar (PDA): 4 g potato infusion, 20 g bacto dextrose and 15 g bacto agar in 1 liter deionised water • Experimental set up: 24-well plates
(§4) • Inoculum: a spore/mycelium suspension (2 μl) or a piece of agar from the margin of an actively growing colony • Culture conditions: 27° C., 70% relative humidity, dark. • Evaluation: Evaluation after two days. Synergism between component (I) and one of the components (II) was determined by a commonly used and accepted method described by Kull F. C. et al. in Applied Microbiology, 9, 538-541 (1961) using the Synergy Index, which is calculated as follows for two compounds A and B: […]
(§5) wherein: • QA is the concentration of compound A in ppm, acting alone, which produced an end point (e.g. MIC), • Qa is the concentration of compound A in ppm, in the mixture, which produced an end point (e.g. MIC), • QB is the concentration of compound B in ppm, acting alone, which produced an end point (e.g. MIC), • Qb is the concentration of compound B in ppm, in the mixture, which produced an end point (e.g. MIC). When the Synergy Index is greater than 1.0, antagonism is indicated.

Colletotrichum musae = experiment: as above; conditions: PDA, 27° C., evaluation after two days, ppm total active ingredient; for MIC: 48 h, read-out: MIC-values (minimum inhibitory concentration) in ppm
Text: as §2, §3, §4, §5

Rhizoctonia solani = experiment: as above; conditions: PDA, 27° C., evaluation after two days, ppm total active ingredient; for MIC: 48 h, read-out: MIC-values (minimum inhibitory concentration) in ppm
Text: as §2, §3, §4, §5

Geotrichum candidum = experiment: as above; conditions: 48 h, PDA, 27° C., evaluation after two days, ppm total active ingredient, read-out: MIC-values (minimum inhibitory concentration) in ppm
Text: as §2, §3, §4, §5

[2] = tested on: Penicillium digitatum (Pdi); experiment: Poison plate assay (Experiment 2), fungal growth and Limpel synergy; conditions: Table 6, Pdi; imazalil 0.02 ppm, combinations 0.02 + 0.02 ppm; conc 0 for carpropamid and fosetyl-Al alone
Protocol: as §1
• Stock solution: 2000 ppm (w/w) • Solvent for dilutions: demineralised water • Fungal species: post harvest and seed pathogens: Geotrichum candidum (Gca) and Penicillium digitatum (Pdi) Calculated amounts of dilutions were poured into multi-well plates. Culture medium was added aseptically and uniform distribution was obtained by shaking. The plates were inoculated with the test fungi and incubated during a period long enough to allow complete outgrowth of controls. • Test concentrations: noted in ppm versus growth medium (w/v): see tables • Replicates: 4 • Culture medium: PDA (Potato Dextrose Agar) • Culture conditions: 22° C. and 60% relative humidity • Inoculation: with a small piece of agar from the margin of an actively growing culture or a suspension of spores, mycelium or culture • Evaluation date: at complete outgrowth of control • Synergy calculation: Diameter of fungal growth (in mm) was measured, mean radial growth (X) and measured activity (M) were calculated. The expected activity E of a combination of active ingredients was calculated by using Limpel's formula (Richter, D. L; Pesticide Science 1987, 19: 309-315): • E=A+B−(A*B)/100 wherein A and B express the activities obtained for each of the active ingredients when applied alone. A synergistic effect is acknowledged if the measured activity M exceeds the calculated (expected) activity E (synergy indicated by figures in bold).

[3] = Table 5, Gca, conc 20 ppm each (combinations 20 + 20)
[4] = Table 5, Gca, conc 25 ppm each (combinations 25/25)
[5] = Table 7, Gca, conc 60 μM (tetraconazole 6 μM), combinations 60 + 60, (I) + (II-i) 60 + 6
[6] = Table 7, Gca, conc 70 μM (tetraconazole 7 μM), combinations 70 + 70, (I) + (II-i) 70 + 7

| Compound | M = measured activity [1, 5] | X = mean fungal growth [1, 5] | M = measured activity [1, 6] | X = mean fungal growth [1, 6] | MIC (Gloeosporium album) | MIC (Colletotrichum musae) | MIC (Rhizoctonia solani) | other results |
| --- | --- | --- | --- | --- | --- | --- | --- | --- |
| FC(F)C(F)(F)OCC(Cn1cncn1)c1ccc(Cl)cc1Cl (stereo not drawn) [tetraconazole (II-i), 1-[2-(2,4-dichloro-phenyl)-3-(1,1,2,2-tetrafluoroethoxy)propyl]-1H-1,2,4-triazole] | 15 | 13 mm | 3 | 15 mm |  |  |  | M = measured activity [1, 3]: 36; X = mean fungal growth [1, 3]: 9 mm; M = measured activity [1, 4]: 45; X = mean fungal growth [1, 4]: 8 mm |
| CC(C1CC1)C(O)(Cn1cncn1)c1ccc(Cl)cc1 (stereo not drawn) [cyproconazole, α-(4-chloro-phenyl)-α-(1-cyclopropyl-ethyl)-1H-1,2,4-triazole-1-ethanol] |  |  |  |  | 2.81 µg/mL | 66.7 µg/mL | 11.9 µg/mL | MIC (Geotrichum candidum): 6.67 µg/mL |
| CCC1(C(=O)NC(C)c2ccc(Cl)cc2)C(C)C1(Cl)Cl (stereo not drawn) [carpropamid (II-f), 2,2-dichloro-N-[1-(4-chlorophenyl)ethyl]-1-ethyl-3-methyl-cyclopropanecarboxamide] |  |  |  |  |  |  |  | M = measured activity [2]: 0; X = mean fungal growth [2]: 15 mm |
| COC(=O)N(OC)c1ccccc1COc1ccn(-c2ccc(Cl)cc2)n1 [pyraclostrobin, methyl N-(2-[1-(4-chlorophenyl)-1H-pyrazol-3-yloxymethyl]phenyl](N-methoxy)carbamate] |  |  |  |  | 66.7 µg/mL | 66.7 µg/mL | 66.7 µg/mL |  |
| C=CCOC(Cn1ccnc1)c1ccc(Cl)cc1Cl (stereo not drawn) [imazalil] | 7 | 14 mm | 68 | 5 mm | 1.58 µg/mL | 8.9 µg/mL | 50 µg/mL | MIC (Geotrichum candidum): 66.7 µg/mL; M = measured activity [1, 3]: 38; X = mean fungal growth [1, 3]: 9 mm; M = measured activity [1, 4]: 50; X = mean fungal growth [1, 4]: 7 mm; M = measured activity [2]: 88; X = mean fungal growth [2]: 2 mm |
| CCC(C)(NC(=O)c1cc(Cl)c(C)c(Cl)c1)C(=O)CCl (stereo not drawn) [zoxamide (II-j), 3,5-dichloro-N-(3-chloro-1-ethyl-1-methyl-2-oxopropyl)-4-methyl-benzamide] | 0 | 15 mm | 2 | 15 mm |  |  |  |  |
| (E)-4-chloro-ααα-trifluoro-N-(1-imidazol-1-yl-2-propoxyethylidene)-o-toluidine [triflumizole] |  |  |  |  |  |  |  | MIC-values (minimum inhibitory concentration) in ppm (Gloeosporium album): 6.67 ppm; MIC-values (minimum inhibitory concentration) in ppm (Colletotrichum musae): 28.13 ppm; MIC-values (minimum inhibitory concentration) in ppm (Rhizoctonia solani): 37.50 ppm |
| CSC(=O)c1cccc2nnsc12 [acibenzolar-S-me (II-e), benzo[1,2,3]-thiadiazole-7-carbothioic acid S-methyl ester] | 7 | 14 mm | 3 | 15 mm |  |  |  |  |
